Test results reported in US20260216197A1, “WRN HELICASE INHIBITOR” (SUZHOU PUHE BIOPHARMA CO., LTD., priority 2022, published 2026).
Like-named read-outs stand apart in the source and are kept apart here. Values belong to the compound of their own block, whether it stands above or below them.

Tests used:
[1] = test system: MSI-H colorectal cancer SW48 cell line; assay: 2D anti-proliferative activity, MSI-H SW48 cells (CTG, 5 days); format: cell-based; settings: for IC50: 5 days; for inhibition at 38.15 pM: 0.038146973 nM; for inhibition at 0.000152588 µM: 0.152587891 nM; for inhibition at 0.000610352 µM: 0.610351563 nM; for inhibition at 0.00244141 µM: 2.44140625 nM; for inhibition at 0.00976562 µM: 9.765625 nM; for inhibition at 0.0390625 µM: 39.0625 nM; for inhibition at 0.15625 µM: 156.25 nM; for inhibition at 0.625 µM: 625 nM; for inhibition at […]: 2500 nM; for inhibition at 10 µM: 10000 nM
Protocol: The molecules of the present disclosure were tested for their anti-proliferative activity against MSI-H tumor cells.
The proliferation of tumor cells with microsatellite instability MSI-H is sensitive to WRN inhibitors, while the proliferation of microsatellite stable (MSS) tumor cells is insensitive to WRN inhibitors. By testing the activities of the two, it is shown that the molecules of the present disclosure have an inhibitory and synthetic lethal effect on WRN at the cellular level.
(§1) The MSI-unstable SW48 colorectal cancer cells were cultured in RPMI 1640 medium containing 10% FBS and 1% penicillin-streptomycin in a 37° C., 5% CO2 constant temperature incubator. A 40 μL cell suspension was added to each well of a 384-well microplate. Using Echo, 40 nL of compounds at different concentrations was dispensed into each well, followed by incubation in a 37° C., 5% CO2 constant temperature incubator for 5 days. Then, 40 μL of CTG solution (Promega, Cat No. G7573) was added to each well, and the plate was incubated in the dark in a 37° C., 5% CO2 constant temperature incubator for 30 minutes. Luminescence was measured using an Envision multi-function microplate reader (Perkin Elmer, Model: Envision 2104). The luminescent signal was proportional to the amount of ATP in the system, and the amount of ATP directly represented the number of living cells in the system.

[2] = Liver microsome stability test; format: in vitro ADME; settings: human liver microsomes 0.5 mg/mL, compound 1 μM, NADPH 1 mM, 60 minutes; for microsomal CLint at 1 μM: read-out: Human Clint μL/min/mg Protein
Protocol: The liver microsome stability test of the compounds is as follows:
The compounds of the present disclosure were subjected to a liver microsome stability test. The compounds to be tested were co-incubated with liver microsomes of different species with or without the addition of NADPH. The final concentration of the compounds to be tested in the test system was 1 μM, the final concentration of NADPH was 1 mM, and the final concentration of liver microsomes was 0.5 mg/mL.

[3] = test system: MSS colorectal cancer HT-29 cell line; assay: 2D anti-proliferative activity, MSS HT-29 cells (CTG, 5 days); format: cell-based
Protocol: The molecules of the present disclosure were tested for their anti-proliferative activity against MSS tumor cells.
as §1, with “MSS HT-29” for “MSI-unstable SW48”, “McCoy's 5A” for “RPMI 1640”

[4] = target: WRN helicase (Homo sapiens, UniProt Q14191); assay: WRN helicase hydrolysis/unwinding of double-stranded DNA (fluorescence); format: biochemical
Chain of WRN helicase (Q14191 whole entry): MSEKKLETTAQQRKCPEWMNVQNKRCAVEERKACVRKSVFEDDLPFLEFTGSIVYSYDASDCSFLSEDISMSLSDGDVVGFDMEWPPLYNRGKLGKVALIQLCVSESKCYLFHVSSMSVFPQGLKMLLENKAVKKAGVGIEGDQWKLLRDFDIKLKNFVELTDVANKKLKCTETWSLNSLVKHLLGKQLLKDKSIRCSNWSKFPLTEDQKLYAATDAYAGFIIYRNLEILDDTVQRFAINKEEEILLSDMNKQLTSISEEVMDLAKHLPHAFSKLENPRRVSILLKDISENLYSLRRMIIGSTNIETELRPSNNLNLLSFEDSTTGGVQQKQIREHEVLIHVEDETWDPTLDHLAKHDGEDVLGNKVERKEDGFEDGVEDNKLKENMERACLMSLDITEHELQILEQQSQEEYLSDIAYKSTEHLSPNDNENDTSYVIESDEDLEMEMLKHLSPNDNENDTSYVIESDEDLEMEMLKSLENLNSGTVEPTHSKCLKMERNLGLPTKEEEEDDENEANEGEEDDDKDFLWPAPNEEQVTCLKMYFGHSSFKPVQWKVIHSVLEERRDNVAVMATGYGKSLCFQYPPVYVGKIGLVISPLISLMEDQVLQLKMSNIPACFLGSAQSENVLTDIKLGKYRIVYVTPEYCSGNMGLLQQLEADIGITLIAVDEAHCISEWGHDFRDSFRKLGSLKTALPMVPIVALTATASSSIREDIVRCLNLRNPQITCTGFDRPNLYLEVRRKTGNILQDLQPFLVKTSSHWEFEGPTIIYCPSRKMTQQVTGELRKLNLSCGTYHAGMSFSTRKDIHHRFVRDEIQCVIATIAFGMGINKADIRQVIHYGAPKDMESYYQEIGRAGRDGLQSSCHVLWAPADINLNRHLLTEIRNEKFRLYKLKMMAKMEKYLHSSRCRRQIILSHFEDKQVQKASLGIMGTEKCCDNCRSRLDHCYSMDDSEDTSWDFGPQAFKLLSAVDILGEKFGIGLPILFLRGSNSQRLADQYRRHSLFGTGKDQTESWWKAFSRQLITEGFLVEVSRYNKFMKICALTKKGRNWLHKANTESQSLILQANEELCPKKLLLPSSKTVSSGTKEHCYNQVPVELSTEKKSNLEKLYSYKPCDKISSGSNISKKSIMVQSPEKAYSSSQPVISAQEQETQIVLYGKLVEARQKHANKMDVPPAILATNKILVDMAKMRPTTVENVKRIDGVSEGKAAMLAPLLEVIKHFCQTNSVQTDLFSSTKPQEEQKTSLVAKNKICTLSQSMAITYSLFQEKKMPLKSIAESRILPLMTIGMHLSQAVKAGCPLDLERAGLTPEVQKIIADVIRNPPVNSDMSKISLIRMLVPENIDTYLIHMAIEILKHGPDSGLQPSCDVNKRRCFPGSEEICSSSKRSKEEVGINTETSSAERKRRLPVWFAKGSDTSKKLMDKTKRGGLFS
Protocol: The activity of the molecules of the present disclosure on the hydrolysis of double-stranded PP-6TR DNA by WRN helicase was tested.
The working solution and buffer were prepared, and the test compound was dissolved in DMSO followed by a4-fold dilution (with a final concentration of 10 μM as the starting concentration). Then, 0.2 μL of the test compound solution was added to a384-well plate, followed by 10 μL of (2×) WRN enzyme solution. The mixture was incubated in the dark for 30 minutes, after which 10 μL of substrate detection solution containing double-stranded DNA was added to initiate the reaction (DNA length: 19 bp, labeled with TAMRA at the 3′ end and BHQ2 at the 5′ end). The mixture was incubated at room temperature for 60 minutes. The inhibitory activity (IC50) against the WRN enzyme was calculated based on the fluorescence change (Ex530/Em590) between the blank group (DMSO) and the compound group.

[5] = Pharmacokinetic evaluation in mice; format: in vivo, CD1 female mice; settings: for AUC(0-t): read-out: AUC0-24
Protocol: CD1 female mice were used as test animals and the drug was administered orally/intravenously (oral dosage: 10 mg/kg, intravenous dosage: 2 mg/kg).
Assay protocol: The oral group consisted of 3 mice per group (vehicle: 10% Hβ-CD-pH7.4), and the intravenous group consisted of 3 mice per group. […] The blood concentrations in plasma after oral and intravenous administration of mice were determined by LC/MS/MS, respectively.

[6] = Homo sapiens, read-out: Average value/ Inhibition rate
[7] = Homo sapiens, read-out: Test 1/ Inhibition rate
[8] = Homo sapiens, read-out: Test 2/ Inhibition rate
[9] = female, CD1, mouse, plasma, IV 2 mg/kg
[10] = female, CD1, mouse, plasma, PO 10 mg/kg

Structure (SMILES): CCc1c(N2CCN(C(=O)c3ncnc(C)c3O)CC2)c(=O)n2nc(C3=CCOCC3)nc2n1CC(=O)Nc1ccc(C(F)(F)F)c2c1OCC2 [Compound H3]
IC50 [1]: 216 nM
Human Clint μL/min/mg Protein [2]: 2.2 μL/min/mg Protein
Human Clint/(mL/min/kg) [2]: 2.7 mL/min/kg
IC50 [3]: > 10000 nM
IC50 [4]: 1.6 nM

Structure (SMILES): CCc1c(N2CCN(C(=O)c3ncccc3O)CC2)c(=O)n2nc(C3=CCOCC3)nc2n1CC(=O)Nc1ccc(C(F)(F)F)c2ccsc12 [Compound H2]
IC50 ([1]; Homo sapiens, 120 h): 131 nM
CLint scaled at 1 μM [2]: 19.7 mL/min/kg
microsomal CLint at 1 μM [2]: 15.7 µL/min/mg
IC50 ([3]; Homo sapiens, 120 h): 3500 nM
IC50 [4]: 1.4 nM

Structure (SMILES): CCc1c(N2CCN(C(=O)c3ncccc3O)CC2)c(=O)n2nc(N3CCC[C@H](F)C3)nc2n1CC(=O)Nc1ccc(C(F)(F)F)c2ccsc12 [Compound H11]
IC50 ([1]; Homo sapiens, 120 h): 1140 nM
IC50 ([3]; Homo sapiens, 120 h): 7410 nM
IC50 [4]: 2.4 nM

Structure (SMILES): CCc1c(N2CCN(C(=O)c3ncnc(C)c3O)CC2)c(=O)n2nc(C3=CCOCC3)nc2n1CC(=O)Nc1ccc(C(F)(F)F)cc1SC [Compound H4]
IC50 ([1]; Homo sapiens, 120 h): 2560 nM
IC50 ([3]; Homo sapiens, 120 h): > 10000 nM
IC50 [4]: 71 nM

Structure (SMILES): CCc1c(N2CCN(C(=O)c3ncccc3O)CC2)c(=O)n2nc(N3CCOCC3)nc2n1CC(=O)Nc1ccc(C(F)(F)F)c2ccsc12 [Compound H9]
IC50 ([1]; Homo sapiens, 120 h): 193 nM
CLint scaled at 1 μM [2]: 13 mL/min/kg
microsomal CLint at 1 μM [2]: 10.3 µL/min/mg
IC50 ([3]; Homo sapiens, 120 h): > 10000 nM
IC50 [4]: 1.7 nM

Now those with a lower IC50 [4], led by results:

IC50 ([1]; Homo sapiens, 120 h): 28 nM
CLint scaled at 1 μM [2]: 7.9 mL/min/kg
microsomal CLint at 1 μM [2]: 6.3 µL/min/mg
IC50 ([3]; Homo sapiens, 120 h): > 10000 nM
F ([5]; PO 10 mg/kg vs IV 2 mg/kg): 24%
clearance [5, 9]: 42.9 mL/min/kg
AUC(0-t) [5, 9]: 722 ng·h/mL
C0 ([5]; female, CD1, mouse, plasma, IV 2 mg/kg, read-out: C0): 2530 ng/mL
half-life [5, 10]: 66 min
AUC(0-t) [5, 10]: 943 ng·h/mL
Cmax ([5]; female, CD1, mouse, plasma, PO 10 mg/kg, read-out: Cmax): 551 ng/mL
Tmax ([5]; female, CD1, mouse, plasma, PO 10 mg/kg, read-out: Tmax): 30 min
IC50 [4]: 1.2 nM
Structure (SMILES): CCc1c(N2CCN(C(=O)c3ncnc(C)c3O)CC2)c(=O)n2nc(C3=CCOCC3)nc2n1CC(=O)Nc1ccc(C(F)(F)F)c2sccc12 [Compound H13]
inhibitory activity on SW48 cells ([1]; 39 nM): high inhibitory activity
inhibition at 38.15 pM [1, 6]: -1.31%
inhibition at 38.15 pM [1, 7]: -1.51%
inhibition at 38.15 pM [1, 8]: -1.1%
inhibition at 0.000152588 µM [1, 6]: 0.853%
inhibition at 0.000152588 µM [1, 7]: 2.48%
inhibition at 0.000152588 µM [1, 8]: -0.775%
inhibition at 0.000610352 µM [1, 6]: -1.43%
inhibition at 0.000610352 µM [1, 7]: -3.56%
inhibition at 0.000610352 µM [1, 8]: 0.706%
inhibition at 0.00244141 µM [1, 6]: -3.17%
inhibition at 0.00244141 µM [1, 7]: 0.0291%
inhibition at 0.00244141 µM [1, 8]: -6.36%
inhibition at 0.00976562 µM [1, 6]: 0.332%
inhibition at 0.00976562 µM [1, 7]: -3.9%
inhibition at 0.00976562 µM [1, 8]: 4.57%
inhibition at 0.0390625 µM [1, 6]: 76.4%
inhibition at 0.0390625 µM [1, 7]: 76.2%
inhibition at 0.0390625 µM [1, 8]: 76.6%
inhibition at 0.15625 µM [1, 6]: 97.6%
inhibition at 0.15625 µM [1, 7]: 98.6%
inhibition at 0.15625 µM [1, 8]: 96.6%
inhibition at 0.625 µM [1, 6]: 99.4%
inhibition at 0.625 µM [1, 7]: 99.6%
inhibition at 0.625 µM [1, 8]: 99.2%
inhibition at […] [1, 6]: 99.6%
inhibition at […] [1, 7]: 99.7%
inhibition at […] [1, 8]: 99.5%
inhibition at 10 µM [1, 6]: 101%
inhibition at 10 µM [1, 7]: 103%
inhibition at 10 µM [1, 8]: 100%

IC50 ([1]; Homo sapiens, 120 h): 124 nM
IC50 ([3]; Homo sapiens, 120 h): 1480 nM
IC50 [4]: 1.3 nM
Structure (SMILES): CCc1c(N2CCN(C(=O)c3ncccc3O)CC2)c(=O)n2nc(C3=CCC(OC)CC3)nc2n1CC(=O)Nc1ccc(C(F)(F)F)c2ccsc12 (stereo not drawn) [Compound H8]

IC50 ([1]; Homo sapiens, 120 h): 125 nM
CLint scaled at 1 μM [2]: 0.73 mL/min/kg
microsomal CLint at 1 μM [2]: 0.58 µL/min/mg
IC50 ([3]; Homo sapiens, 120 h): > 10000 nM
IC50 [4]: 0.9 nM
Structure (SMILES): CCc1c(N2CCN(C(=O)c3nccc(Cl)c3O)CC2)c(=O)n2nc(C3=CCOCC3)nc2n1CC(=O)Nc1ccc(C(F)(F)F)c2ccsc12 [Compound H19]

IC50 ([1]; Homo sapiens, 120 h): 75 nM
CLint scaled at 1 μM [2]: 25.9 mL/min/kg
microsomal CLint at 1 μM [2]: 20.6 µL/min/mg
IC50 ([3]; Homo sapiens, 120 h): > 10000 nM
IC50 [4]: 1 nM
Structure (SMILES): CCc1c(N2CCN(C(=O)c3nccc(F)c3O)CC2)c(=O)n2nc(C3=CCOCC3)nc2n1CC(=O)Nc1ccc(C(F)(F)F)c2ccsc12 [Compound H20]
